From patent publication US6737383B1, “Herbicidal oxadiazolidines” (priority 1999, dated 2004)

Tests used:
bedstraw = assay: Test B pre/postemergence bedstraw; assay type: in vivo, Galium aparine
Outline: (§1)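 Test chemicals in a non-phytotoxic solvent mixture with surfactant were sprayed preemergence onto planted seeds and postemergence onto plants 2 to 18 cm tall (1- to 4-leaf stage). After twelve to sixteen days in a greenhouse, injury was visually rated against untreated controls from 0 (no effect) to 10 (complete control).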

blackgrass = assay: Test B pre/postemergence blackgrass; assay type: in vivo, Alopecurus myosuroides
Outline: as §1

surinam grass = assay: Test B pre/postemergence surinam grass; assay type: in vivo, Brachiaria decumbens; settings: for B. signalgrass plant response rating (0 to 10 scale): 0 is no effect
Outline: as §1

bamyardgrass = assay: Test B flood test barnyardgrass; assay type: in vivo, Echinochloa crus-galli
Outline: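 Flood test on plants grown to the 2-leaf stage; treated plants kept in greenhouse twelve to sixteen days, then visually rated against controls on a 0 (no effect) to 10 (complete control) scale.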

[1] = Preemergence, Rate 62 g/ha, scale of 0 to 10 where 0 is no effect and 10 is complete control
[2] = Preemergence, Rate 250 g/ha, scale of 0 to 10 where 0 is no effect and 10 is complete control
[3] = Preemergence, Rate 500 g/ha, scale of 0 to 10 where 0 is no effect and 10 is complete control
[4] = Rate 62 g/ha, Postemergence, scale of 0 to 10 where 0 is no effect and 10 is complete control
[5] = Rate 125 g/ha, Postemergence, scale 0 to 10
[6] = Rate 125 g/ha, Preemergence, scale of 0 to 10 where 0 is no effect and 10 is complete control
[7] = Rate 500 g/ha, Postemergence, scale 0 to 10, 0 no effect, 10 complete control
[8] = Preemergence, Rate 250 g/ha, scale 0 to 10, 0 is no effect, 10 is complete control
[9] = Rate 125 g/ha, Postemergence, scale 0 (no effect) to 10 (complete control)
[10] = Rate 62 g/ha, headed Pre-emergence (flood test species), scale 0 to 10 (0 no effect, 10 complete control)
[11] = Rate 125 g/ha, Pre-emergence, flood test species, scale 0 to 10 where 0 is no effect and 10 is complete control
[12] = Rate 250 g/ha, Pre-emergence, flood-test species, scale 0 to 10, 0 is no effect, 10 is complete control
[13] = Rate 500 g/ha, Pre-emergence, flood test species, scale 0 to 10 (0 no effect, 10 complete control)
[14] = Postemergence, Rate 125 g/ha, scale of 0 to 10 where 0 is no effect and 10 is complete control
[15] = Preemergence, Rate 62 g/ha, scale 0 to 10 (0 no effect, 10 complete control)
[16] = Preemergence, Rate 125 g/ha, 0 is no effect, 10 is complete control
[17] = Preemergence, Rate 500 g/ha, scale 0 to 10 (0 no effect, 10 complete control)
[18] = Rate 250 g/ha, Postemergence, scale 0 to 10, 0 is no effect, 10 is complete control
[19] = Rate 500 g/ha, Postemergence, scale 0 to 10
[20] = Preemergence, Rate 125 g/ha, 10 is complete control
[21] = Rate 500 g/ha, headed Pre-emergence (flood test species), scale 0 to 10 (0 no effect, 10 complete control)
[22] = Postemergence, Rate 500 g/ha, scale of 0 to 10 where 0 is no effect and 10 is complete control
[23] = Preemergence, Rate 125 g/ha, scale of 0 to 10 where 0 is no effect and 10 is complete control
[24] = Postemergence, Rate 250 g/ha, scale 0 to 10, 0 is no effect, 10 is complete control
[25] = Postemergence, Rate 1000 g/ha, scale 0 to 10 (0 no effect, 10 complete control)
[26] = Rate 125 g/ha, Postemergence, scale of 0 to 10 where 0 is no effect and 10 is complete control
[27] = Rate 250 g/ha, Postemergence, scale of 0 to 10 where 0 is no effect and 10 is complete control
[28] = Rate 1000 g/ha, Preemergence, scale 0 to 10 (0 no effect, 10 complete control)

CCN(C(=O)n1oc(=O)n(C)c1=O)C1CCCCC1 [Compound 228]
0: Bedstraw plant response rating (bedstraw; [1]) | Bedstraw plant response rating (bedstraw; [2]) | Plant response rating, Bedstraw (bedstraw; [3]) | Bedstraw plant response rating (bedstraw; [4]) | Bedstraw plant response rating (bedstraw; [5]) | Bedstraw plant response rating (bedstraw; [6]) | Plant response rating (0 to 10; 0 is no effect, 10 is complete control), Bedstraw (bedstraw; Rate 250 g/ha, Postemergence) | Blackgrass plant response rating (blackgrass; [1]) | Blackgrass plant response rating (blackgrass; [2]) | Plant response rating, Blackgrass (blackgrass; [3]) | Blackgrass plant response rating (blackgrass; [4]) | Blackgrass plant response rating (blackgrass; [5]) | Blackgrass plant response rating (blackgrass; [6]) | Plant response rating (0 to 10; 0 is no effect, 10 is complete control), Blackgrass (blackgrass; Rate 250 g/ha, Postemergence) | Blackgrass plant response rating (blackgrass; [7]) | B. signalgrass plant response rating (surinam grass; [1]) | B. signalgrass plant response rating (surinam grass; [8]) | Plant response rating, B. signalgrass (surinam grass; [3]) | B. signalgrass plant response rating (surinam grass; [4]) | B. signalgrass plant response rating (surinam grass; [9]) | B. signalgrass plant response rating (surinam grass; [6]) | Plant response rating (0 to 10; 0 is no effect, 10 is complete control), B. signalgrass (surinam grass; Rate 250 g/ha, Postemergence) | B. signalgrass plant response rating (surinam grass; [7]) | Barnyardgrass plant response rating (bamyardgrass; [10]) | Barnyardgrass plant response rating (bamyardgrass; [11]) | Barnyardgrass plant response rating (bamyardgrass; [12]) | Barnyardgrass plant response rating (bamyardgrass; [13])
2: Bedstraw plant response rating (bedstraw; [7])

CC(C)N(C(=O)n1oc(=O)n(C(C)(C)C)c1=O)c1ccccc1 [Compound 129]
9: Barnyardgrass plant response rating (bamyardgrass; Rate 250 g/ha, headed Pre-emergence (flood test species), scale 0 to 10 (0 no effect, 10 complete control)) | Plant response rating, Barnyardgrass (bamyardgrass; [21])
0: Bedstraw plant response rating (bedstraw; [14]) | Bedstraw plant response rating (bedstraw; [15]) | Bedstraw plant response rating (0 to 10 scale) (bedstraw; [16]) | Bedstraw plant response rating (bedstraw; [8]) | Bedstraw plant response rating (bedstraw; [17]) | Bedstraw plant response rating (bedstraw; [4]) | Blackgrass plant response rating (blackgrass; [14]) | Blackgrass plant response rating (blackgrass; [15]) | Blackgrass plant response rating (0 to 10 scale) (blackgrass; [16]) | Blackgrass plant response rating (blackgrass; [4]) | B. signalgrass plant response rating (surinam grass; [14]) | B. signalgrass plant response rating (surinam grass; [15]) | B. signalgrass plant response rating (surinam grass; [4])
2: Blackgrass plant response rating (blackgrass; [8]) | B. signalgrass plant response rating (0 to 10 scale) (surinam grass; [20])
4: Blackgrass plant response rating (blackgrass; [17]) | Plant response rating, B. signalgrass (surinam grass; [18])
7: B. signalgrass plant response rating (surinam grass; [17]) | Barnyardgrass plant response rating (bamyardgrass; [10])
3: Plant response rating, Bedstraw (bedstraw; [18]) | Bedstraw plant response rating (bedstraw; [7]) | Plant response rating, Blackgrass (blackgrass; [18]) | Blackgrass plant response rating (blackgrass; [19]) | Barnyardgrass plant response rating (bamyardgrass; [11])
6: B. signalgrass plant response rating (surinam grass; Rate 500 g/ha, Postemergence, scale of 0 to 10 where 0 is no effect and 10 is complete control)

CC(C)N(C(=O)n1oc(=O)n(C(CF)CF)c1=O)c1ccc(F)cc1 [Compound 390]
2: B. signalgrass plant response rating (surinam grass; [4]) | Plant response rating, Barnyardgrass (0 to 10 scale, 0 is no effect, 10 is complete control) (bamyardgrass; Rate 62 g/ha, flood test species, Pre-emergence, visual evaluation after twelve to sixteen days)
6: Plant response rating, Blackgrass (blackgrass; [15])
9: Plant response rating, Blackgrass (blackgrass; [24]) | Blackgrass plant response rating (blackgrass; [22]) | Plant response rating, Blackgrass (blackgrass; [23]) | Blackgrass plant response rating (blackgrass; [2]) | B. signalgrass plant response rating (surinam grass; [2]) | Barnyardgrass plant response rating (bamyardgrass; [13])
4: Barnyardgrass plant response rating (bamyardgrass; [12])
5: Plant response rating, B. signalgrass (surinam grass; Postemergence, Rate 125 g/ha, scale 0 to 10, 0 is no effect, 10 is complete control) | Plant response rating, B. signalgrass (surinam grass; [24]) | Plant response rating, B. signalgrass (surinam grass; [23]) | Barnyardgrass plant response rating (0 to 10 scale, 0 is no effect, 10 is complete control) (bamyardgrass; Rate 125 g/ha, under heading Pre-emergence, flood test species, visual evaluation after twelve to sixteen days)
0: Plant response rating, Bedstraw (bedstraw; [23])
7: Bedstraw plant response rating (bedstraw; [22])
10: Blackgrass plant response rating (blackgrass; [3]) | B. signalgrass plant response rating (surinam grass; [3])
8: Blackgrass plant response rating (blackgrass; [4]) | B. signalgrass plant response rating (surinam grass; [22])
1: Plant response rating, B. signalgrass (surinam grass; [15])

CCN(C(=O)n1oc(=O)n(C(C)C)c1=O)c1nncs1 [Compound 190]
4: Bedstraw plant response rating (bedstraw; [17])
0: Bedstraw plant response rating (bedstraw; [1]) | Bedstraw plant response rating (bedstraw; [8]) | Bedstraw plant response rating (bedstraw; [4]) | Bedstraw plant response rating (bedstraw; [5]) | Plant response rating (0 to 10; 0 is no effect, 10 is complete control), Bedstraw (bedstraw; Rate 250 g/ha, Postemergence) | Bedstraw plant response rating (bedstraw; [19]) | Blackgrass plant response rating (blackgrass; [1]) | Blackgrass plant response rating (0 to 10 scale) (blackgrass; [16]) | Blackgrass plant response rating (blackgrass; [8]) | Blackgrass plant response rating (blackgrass; [4]) | Blackgrass plant response rating (blackgrass; [5]) | Plant response rating (0 to 10; 0 is no effect, 10 is complete control), Blackgrass (blackgrass; Rate 250 g/ha, Postemergence) | Blackgrass plant response rating (blackgrass; [19]) | B. signalgrass plant response rating (surinam grass; [1]) | B. signalgrass plant response rating (0 to 10 scale) (surinam grass; [20]) | B. signalgrass plant response rating (surinam grass; [8]) | B. signalgrass plant response rating (surinam grass; [17]) | B. signalgrass plant response rating (surinam grass; [4]) | B. signalgrass plant response rating (surinam grass; [9]) | Plant response rating, B. signalgrass (surinam grass; [18]) | B. signalgrass plant response rating (surinam grass; [7]) | Barnyardgrass plant response rating (bamyardgrass; [10]) | Barnyardgrass plant response rating (bamyardgrass; [11]) | Barnyardgrass plant response rating (bamyardgrass; [12]) | Plant response rating, Barnyardgrass (bamyardgrass; [21])
3: Blackgrass plant response rating (blackgrass; [17])

CCOC(=O)C(C)N(C(=O)n1oc(=O)n(C(C)C)c1=O)c1ccc(F)cc1 (centres unmarked) [Compound 302]
3: B. signalgrass plant response rating (surinam grass; [3])
6: Blackgrass plant response rating (blackgrass; [25]) | Plant response rating, Blackgrass (blackgrass; [28])
0: Bedstraw plant response rating (bedstraw; [25]) | Bedstraw plant response rating (0 to 10 scale) (bedstraw; Preemergence, Rate 125 g/ha) | Bedstraw plant response rating (bedstraw; [2]) | Bedstraw plant response rating (bedstraw; [3]) | Bedstraw plant response rating (bedstraw; [26]) | Plant response rating, Bedstraw (bedstraw; [27]) | Bedstraw plant response rating (bedstraw; [7]) | Plant response rating, Bedstraw (bedstraw; [28]) | Blackgrass plant response rating (0 to 10 scale) (blackgrass; Preemergence, Rate 125 g/ha) | Blackgrass plant response rating (blackgrass; [26]) | Plant response rating, Blackgrass (blackgrass; [27]) | B. signalgrass plant response rating (surinam grass; [25]) | B. signalgrass plant response rating (0 to 10 scale, 0 is no effect, 10 is complete control) (surinam grass; Preemergence, Rate 125 g/ha) | B. signalgrass plant response rating (surinam grass; [2]) | B. signalgrass plant response rating (surinam grass; [26]) | Plant response rating, B. signalgrass (surinam grass; [27]) | B. signalgrass plant response rating (surinam grass; [7]) | Barnyardgrass plant response rating (bamyardgrass; Pre-emergence, Rate 1000 g/ha, scale 0 to 10 (0 no effect, 10 complete control)) | Barnyardgrass plant response rating (bamyardgrass; [11]) | Barnyardgrass plant response rating (bamyardgrass; [12]) | Barnyardgrass plant response rating (bamyardgrass; [13])
2: Blackgrass plant response rating (blackgrass; [2]) | Blackgrass plant response rating (blackgrass; [7])
5: Blackgrass plant response rating (blackgrass; [3])
7: Plant response rating, B. signalgrass (surinam grass; [28])
